ChEMBL document CHEMBL1129670, “Synthesis and structure-activity relationships of N-propyl-N-(4-pyridinyl)-1H-indol-1-amine (besipirdine) and related analogs as potential therapeutic agents for Alzheimer's disease” (J Med Chem, 1996)

Legend:
[1] = target: T1, Adrenergic receptor alpha-2 (Rattus norvegicus, UniProt P22086+P19328+P22909); test: Inhibitory activity against [3H]clonidine binding to Alpha-2 adrenergic receptor in rat cortex
T1 sequence (P22086 whole entry): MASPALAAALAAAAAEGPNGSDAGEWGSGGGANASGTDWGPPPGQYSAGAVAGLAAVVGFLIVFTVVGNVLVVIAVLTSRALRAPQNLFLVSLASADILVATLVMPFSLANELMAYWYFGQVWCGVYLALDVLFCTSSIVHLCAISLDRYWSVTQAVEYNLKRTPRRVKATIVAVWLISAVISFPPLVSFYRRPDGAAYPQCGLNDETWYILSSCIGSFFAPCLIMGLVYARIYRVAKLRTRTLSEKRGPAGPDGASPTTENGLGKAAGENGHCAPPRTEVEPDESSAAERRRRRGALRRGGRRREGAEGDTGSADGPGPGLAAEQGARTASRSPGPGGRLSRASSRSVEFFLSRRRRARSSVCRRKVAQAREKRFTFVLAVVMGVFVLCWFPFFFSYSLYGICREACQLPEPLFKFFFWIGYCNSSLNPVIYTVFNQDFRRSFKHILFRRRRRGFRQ
T1 sequence (P19328 whole entry): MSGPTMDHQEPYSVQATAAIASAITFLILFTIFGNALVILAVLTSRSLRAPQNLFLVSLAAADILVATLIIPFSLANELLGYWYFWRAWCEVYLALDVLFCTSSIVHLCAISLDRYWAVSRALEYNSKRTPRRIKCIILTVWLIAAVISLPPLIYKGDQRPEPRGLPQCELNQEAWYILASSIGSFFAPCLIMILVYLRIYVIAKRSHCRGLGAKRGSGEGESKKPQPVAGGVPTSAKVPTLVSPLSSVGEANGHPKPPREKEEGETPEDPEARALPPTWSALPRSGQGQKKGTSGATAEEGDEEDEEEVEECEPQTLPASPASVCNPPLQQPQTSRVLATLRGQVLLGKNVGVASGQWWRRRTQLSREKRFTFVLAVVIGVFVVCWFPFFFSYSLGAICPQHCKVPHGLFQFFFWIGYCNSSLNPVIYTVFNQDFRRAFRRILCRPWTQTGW
T1 sequence (P22909 whole entry): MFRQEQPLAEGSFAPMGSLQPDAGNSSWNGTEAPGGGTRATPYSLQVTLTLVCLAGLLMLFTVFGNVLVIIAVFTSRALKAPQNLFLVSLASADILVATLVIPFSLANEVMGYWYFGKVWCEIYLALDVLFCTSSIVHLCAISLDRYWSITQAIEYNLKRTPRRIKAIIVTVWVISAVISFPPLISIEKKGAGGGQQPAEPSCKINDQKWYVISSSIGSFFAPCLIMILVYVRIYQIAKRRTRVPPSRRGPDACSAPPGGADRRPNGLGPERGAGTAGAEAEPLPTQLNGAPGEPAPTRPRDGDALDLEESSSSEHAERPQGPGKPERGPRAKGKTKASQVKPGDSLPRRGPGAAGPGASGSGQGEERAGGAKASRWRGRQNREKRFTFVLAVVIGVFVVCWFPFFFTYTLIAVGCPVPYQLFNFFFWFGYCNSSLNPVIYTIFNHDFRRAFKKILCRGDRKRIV

[2] = species on record: Mus musculus; test: Antagonistic activity against Scopolamine induced behavioral deficits in mice; 3/9; type: functional
[3] = test system: Mus musculus; test: Antagonistic activity against Scopolamine induced behavioral deficits in mice at dose 0.04 mg/kg sc; type: functional; settings: route subcutaneous
[4] = target: Sodium-dependent noradrenaline transporter (Homo sapiens, UniProt P23975)
Sequence of Sodium-dependent noradrenaline transporter (P23975 whole entry): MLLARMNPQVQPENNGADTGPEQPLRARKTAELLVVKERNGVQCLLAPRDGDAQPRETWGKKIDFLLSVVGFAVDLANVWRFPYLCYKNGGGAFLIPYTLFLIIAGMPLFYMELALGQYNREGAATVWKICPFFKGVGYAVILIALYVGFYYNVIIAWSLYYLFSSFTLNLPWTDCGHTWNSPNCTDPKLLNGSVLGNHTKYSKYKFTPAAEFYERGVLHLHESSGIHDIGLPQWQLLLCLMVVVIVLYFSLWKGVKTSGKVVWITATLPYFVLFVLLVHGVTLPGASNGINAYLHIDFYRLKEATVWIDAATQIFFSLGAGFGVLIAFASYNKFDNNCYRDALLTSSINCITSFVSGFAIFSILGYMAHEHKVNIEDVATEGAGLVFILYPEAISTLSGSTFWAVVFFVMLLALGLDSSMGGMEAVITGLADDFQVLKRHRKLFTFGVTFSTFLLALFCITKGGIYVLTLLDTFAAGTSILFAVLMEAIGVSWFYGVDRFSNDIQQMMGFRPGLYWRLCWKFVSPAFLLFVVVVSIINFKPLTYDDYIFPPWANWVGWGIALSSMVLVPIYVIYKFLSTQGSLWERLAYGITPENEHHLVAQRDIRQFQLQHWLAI
Description: Inhibitory activity against norepinephrine (NE) uptake in rat whole brain synaptosome preparation

[5] = test system: Mus musculus; test: Antagonistic activity against Scopolamine induced behavioral deficits in mice at dose 0.16 mg/kg sc; type: functional; settings: route subcutaneous
[6] = target: T2, Acetylcholinesterase (Rattus norvegicus, UniProt P37136); test: Inhibitory activity against Acetylcholinesterase in rat striatum; type: tissue-based
T2 sequence (P37136 whole entry): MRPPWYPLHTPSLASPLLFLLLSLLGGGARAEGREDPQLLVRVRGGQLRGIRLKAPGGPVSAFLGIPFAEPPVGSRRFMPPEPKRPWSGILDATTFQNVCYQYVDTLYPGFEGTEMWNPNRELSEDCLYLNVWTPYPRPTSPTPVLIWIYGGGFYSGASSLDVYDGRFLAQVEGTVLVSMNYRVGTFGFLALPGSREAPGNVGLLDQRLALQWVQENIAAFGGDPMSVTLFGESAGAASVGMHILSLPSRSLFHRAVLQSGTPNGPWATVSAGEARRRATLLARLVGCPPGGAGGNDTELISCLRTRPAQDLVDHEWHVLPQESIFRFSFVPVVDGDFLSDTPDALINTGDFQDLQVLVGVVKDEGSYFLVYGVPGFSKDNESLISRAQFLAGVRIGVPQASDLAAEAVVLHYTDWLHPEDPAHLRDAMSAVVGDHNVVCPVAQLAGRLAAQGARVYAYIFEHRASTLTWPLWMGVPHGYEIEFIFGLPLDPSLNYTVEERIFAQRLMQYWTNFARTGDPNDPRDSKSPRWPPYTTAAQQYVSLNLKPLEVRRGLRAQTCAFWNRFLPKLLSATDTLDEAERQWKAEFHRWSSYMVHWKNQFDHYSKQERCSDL

[7] = target: T1, Adrenergic receptor alpha-2; test: Inhibitory activity against [3H]idazoxan binding to Alpha-2 adrenergic receptor in rat cortex, in the presence of GPP
[8] = target: T1, Adrenergic receptor alpha-2; test: Inhibitory activity against [3H]yohimbine binding to Alpha-2 adrenergic receptor in rat cortex
[9] = target: D(1A) dopamine receptor (Rattus norvegicus, UniProt P18901); test: Inhibitory activity against [3H]SCH-23390 binding to Dopamine receptor D1 in rat striatum; type: tissue-based
Sequence of D(1A) dopamine receptor (P18901 whole entry): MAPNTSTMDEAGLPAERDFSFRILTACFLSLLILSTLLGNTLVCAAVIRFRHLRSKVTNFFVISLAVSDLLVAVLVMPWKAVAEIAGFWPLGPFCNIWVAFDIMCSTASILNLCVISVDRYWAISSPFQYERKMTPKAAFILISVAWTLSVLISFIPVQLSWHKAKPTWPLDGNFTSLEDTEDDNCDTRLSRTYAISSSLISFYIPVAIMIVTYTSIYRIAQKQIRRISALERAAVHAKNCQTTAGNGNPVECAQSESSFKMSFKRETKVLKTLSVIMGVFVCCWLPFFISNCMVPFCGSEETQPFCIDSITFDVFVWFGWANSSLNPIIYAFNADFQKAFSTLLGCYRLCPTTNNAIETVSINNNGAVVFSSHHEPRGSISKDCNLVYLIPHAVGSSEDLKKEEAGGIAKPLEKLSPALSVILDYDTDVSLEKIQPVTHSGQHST

[10] = target: Muscarinic acetylcholine receptor; test: Inhibitory activity against [3H]oxotremorine-M binding to muscarinic receptors in rat forebrain membrane; type: cell membranes
[11] = target: Neuronal acetylcholine receptor; test: Inhibitory activity against [3H]-NMCC binding to nicotinic receptors in rat cortex
[12] = target: Glutamate NMDA receptor; test: Inhibitory activity against [3H]-CPP binding to NMDA receptor in rat cortex
[13] = target: Mu-type opioid receptor (Rattus norvegicus, UniProt P33535); test: Inhibitory activity against [3H]DHM binding to mu opioid receptor in rat whole brain
Sequence of Mu-type opioid receptor (P33535 whole entry): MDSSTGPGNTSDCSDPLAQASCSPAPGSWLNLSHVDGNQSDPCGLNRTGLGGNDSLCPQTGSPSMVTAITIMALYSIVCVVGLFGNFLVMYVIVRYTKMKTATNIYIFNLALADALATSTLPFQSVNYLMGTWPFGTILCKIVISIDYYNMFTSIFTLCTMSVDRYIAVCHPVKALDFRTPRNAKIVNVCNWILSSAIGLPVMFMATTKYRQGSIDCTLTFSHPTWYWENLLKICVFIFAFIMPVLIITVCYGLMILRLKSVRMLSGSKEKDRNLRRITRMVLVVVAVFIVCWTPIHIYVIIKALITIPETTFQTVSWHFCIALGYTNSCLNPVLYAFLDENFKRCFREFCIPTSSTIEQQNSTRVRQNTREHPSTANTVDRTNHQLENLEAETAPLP

[14] = target: Kappa-type opioid receptor (Cavia porcellus, UniProt P41144); test: Inhibitory activity against [3H]bremazocine binding to kappa opioid receptor in guinea pig cerebellum; type: tissue-based
Sequence of Kappa-type opioid receptor (P41144 whole entry): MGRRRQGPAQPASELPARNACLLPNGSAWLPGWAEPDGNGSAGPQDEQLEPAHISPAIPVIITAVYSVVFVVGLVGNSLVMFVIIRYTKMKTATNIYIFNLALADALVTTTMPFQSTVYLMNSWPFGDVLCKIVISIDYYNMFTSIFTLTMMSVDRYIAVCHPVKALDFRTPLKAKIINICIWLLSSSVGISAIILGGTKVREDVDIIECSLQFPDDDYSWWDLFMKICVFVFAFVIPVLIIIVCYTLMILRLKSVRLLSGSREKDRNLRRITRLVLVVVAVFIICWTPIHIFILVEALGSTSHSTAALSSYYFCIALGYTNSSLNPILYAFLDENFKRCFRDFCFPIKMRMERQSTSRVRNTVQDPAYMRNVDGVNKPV

[15] = target: Glutamate NMDA receptor; test: Inhibitory activity against [3H]TCP binding to Phencyclidine receptor in rat cortex
[16] = species on record: Rattus norvegicus; test: Inhibitory activity against [3H]dopamine uptake in rat striatum; type: functional
[17] = species on record: Rattus norvegicus; test: Inhibitory activity against [3H]norepinephrine (NE) uptake in rat whole brain; type: functional
[18] = species on record: Rattus norvegicus; test: Inhibitory activity against [3H]5-HT uptake in rat whole brain; type: functional
[19] = species on record: Rattus norvegicus; test: Inhibitory activity against [3H]norepinephrine (NE) uptake in rat hypothalamus; type: functional
[20] = target: Voltage-dependent L-type calcium channel subunit alpha-1C (Rattus norvegicus, UniProt P22002); test: Inhibition of [3H]nitrendipine binding to [Ca2+] channel of rat heart
Sequence of Voltage-dependent L-type calcium channel subunit alpha-1C (P22002 whole entry): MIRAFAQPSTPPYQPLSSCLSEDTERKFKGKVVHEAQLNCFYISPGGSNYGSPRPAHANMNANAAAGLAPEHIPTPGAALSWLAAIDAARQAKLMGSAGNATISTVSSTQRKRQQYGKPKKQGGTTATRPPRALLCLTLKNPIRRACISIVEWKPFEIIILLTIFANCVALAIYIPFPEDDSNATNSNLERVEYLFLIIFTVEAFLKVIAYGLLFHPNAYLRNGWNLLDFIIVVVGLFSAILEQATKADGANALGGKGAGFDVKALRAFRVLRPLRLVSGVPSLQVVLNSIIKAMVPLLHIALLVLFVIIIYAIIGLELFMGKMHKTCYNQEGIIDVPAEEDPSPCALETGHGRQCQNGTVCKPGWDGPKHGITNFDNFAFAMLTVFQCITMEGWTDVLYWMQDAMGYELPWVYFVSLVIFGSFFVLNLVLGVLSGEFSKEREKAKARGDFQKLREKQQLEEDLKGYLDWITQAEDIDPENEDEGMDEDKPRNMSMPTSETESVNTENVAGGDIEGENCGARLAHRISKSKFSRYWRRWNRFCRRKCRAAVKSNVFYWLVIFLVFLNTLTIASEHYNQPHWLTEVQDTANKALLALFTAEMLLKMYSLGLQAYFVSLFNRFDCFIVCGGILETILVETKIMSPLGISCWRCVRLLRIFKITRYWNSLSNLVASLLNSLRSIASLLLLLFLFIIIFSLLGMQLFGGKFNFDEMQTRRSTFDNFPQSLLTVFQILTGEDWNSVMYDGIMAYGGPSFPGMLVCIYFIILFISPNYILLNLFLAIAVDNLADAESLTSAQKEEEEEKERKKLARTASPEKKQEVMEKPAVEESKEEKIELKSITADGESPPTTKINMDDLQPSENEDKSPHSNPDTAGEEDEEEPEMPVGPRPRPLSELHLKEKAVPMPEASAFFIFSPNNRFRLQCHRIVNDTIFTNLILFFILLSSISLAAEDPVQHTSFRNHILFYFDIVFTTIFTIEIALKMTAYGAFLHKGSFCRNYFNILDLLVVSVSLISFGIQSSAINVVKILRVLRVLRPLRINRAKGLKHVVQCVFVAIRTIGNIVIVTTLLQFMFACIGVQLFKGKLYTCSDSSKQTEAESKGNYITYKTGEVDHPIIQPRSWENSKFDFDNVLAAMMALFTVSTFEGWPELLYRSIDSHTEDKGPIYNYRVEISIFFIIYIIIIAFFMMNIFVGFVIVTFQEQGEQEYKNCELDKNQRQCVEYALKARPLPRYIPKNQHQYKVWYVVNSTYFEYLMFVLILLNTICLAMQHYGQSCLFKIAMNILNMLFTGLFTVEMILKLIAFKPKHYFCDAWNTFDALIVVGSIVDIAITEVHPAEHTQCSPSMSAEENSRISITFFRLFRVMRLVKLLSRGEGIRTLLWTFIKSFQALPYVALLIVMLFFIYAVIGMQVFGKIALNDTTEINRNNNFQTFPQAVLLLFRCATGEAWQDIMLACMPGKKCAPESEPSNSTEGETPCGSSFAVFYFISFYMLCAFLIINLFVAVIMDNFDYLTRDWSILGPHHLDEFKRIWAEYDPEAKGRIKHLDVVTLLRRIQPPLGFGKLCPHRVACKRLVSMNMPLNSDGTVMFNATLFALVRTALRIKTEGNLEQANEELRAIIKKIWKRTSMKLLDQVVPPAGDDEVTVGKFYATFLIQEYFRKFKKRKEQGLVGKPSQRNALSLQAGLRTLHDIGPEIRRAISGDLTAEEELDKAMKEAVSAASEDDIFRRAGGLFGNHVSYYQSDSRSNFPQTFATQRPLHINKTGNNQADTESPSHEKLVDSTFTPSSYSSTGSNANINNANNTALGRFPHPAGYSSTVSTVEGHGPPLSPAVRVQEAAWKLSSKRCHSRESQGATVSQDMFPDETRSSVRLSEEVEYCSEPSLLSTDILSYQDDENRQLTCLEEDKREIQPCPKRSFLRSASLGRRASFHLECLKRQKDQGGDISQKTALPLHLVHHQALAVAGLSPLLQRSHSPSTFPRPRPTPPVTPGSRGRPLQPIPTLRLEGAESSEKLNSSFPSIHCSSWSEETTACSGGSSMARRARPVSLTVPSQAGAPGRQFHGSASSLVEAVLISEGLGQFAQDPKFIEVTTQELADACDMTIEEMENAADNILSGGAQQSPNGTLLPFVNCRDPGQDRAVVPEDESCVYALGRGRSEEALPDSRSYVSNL

[21] = target: D(2) dopamine receptor (Rattus norvegicus, UniProt P61169); test: Inhibitory activity against [3H]spiroperidol bingind to Dopamine receptor D2 in rat striatum; type: tissue-based
Sequence of D(2) dopamine receptor (P61169 whole entry): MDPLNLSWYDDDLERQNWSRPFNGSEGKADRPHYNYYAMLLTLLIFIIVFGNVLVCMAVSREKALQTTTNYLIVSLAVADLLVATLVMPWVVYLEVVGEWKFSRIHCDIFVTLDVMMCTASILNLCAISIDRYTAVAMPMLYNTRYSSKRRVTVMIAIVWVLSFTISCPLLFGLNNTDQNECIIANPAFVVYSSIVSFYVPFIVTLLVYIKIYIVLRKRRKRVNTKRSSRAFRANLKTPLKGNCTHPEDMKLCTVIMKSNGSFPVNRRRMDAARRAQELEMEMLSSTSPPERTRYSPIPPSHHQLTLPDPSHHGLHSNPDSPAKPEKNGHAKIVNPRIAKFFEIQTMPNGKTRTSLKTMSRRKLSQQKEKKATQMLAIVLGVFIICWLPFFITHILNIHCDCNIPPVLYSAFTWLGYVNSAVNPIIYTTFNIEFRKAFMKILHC

[22] = species on record: Mus musculus; settings: dose 0.63 mg/kg; route subcutaneous
Description: Antagonistic activity against Scopolamine induced behavioral deficits in mice at dose 0.63 mg/kg sc

CN(c1ccncc1)n1ccc2ccccc21
IC50 [1]: 24 nM
Antagonism [2]: 3
Response [3]: 53%
IC50 [4]: 1000 nM

c1ccc2c(c1)ccn2Nc1ccncc1
IC50 [1]: 8 nM
Antagonism [2]: 3
Response [5]: 23%
IC50 [4]: 2500 nM

CCCN(c1ccncc1)n1ccc2ccccc21 [BESIPIRDINE]
IC50 [6]: > 100000 nM
IC50 [1]: 330 nM
IC50 [7]: 140 nM
IC50 [8]: 250 nM
IC50 [9]: > 20000 nM
Response [3]: 30%
Response [5]: 27%
IC50 [10]: 460 nM
IC50 [11]: > 20000 nM
IC50 [12]: > 20000 nM
IC50 [13]: > 1000 nM
IC50 [14]: > 10000 nM
IC50 [15]: > 20000 nM
IC50 [16]: 410 nM
IC50 [17]: 430 nM
IC50 [18]: 2600 nM
IC50 [19]: 270 nM
IC50 [20]: > 100000 nM
IC50 [21]: > 20000 nM
IC50 [4]: 430 nM
Response [22]: 40%
